From patent US7160893B2, “Pyrimidine-2,4-dione derivatives as matrix metalloproteinase inhibitors” (Warner-Lambert Company, priority 2002, dated 2007)
Read-outs that look alike come from different tables or passages of the source.

Target: MMP-13 catalytic domain (Homo sapiens, UniProt P45452)
Assay: Inhibition of MMP-13 catalytic domain (thiopeptolide substrate hydrolysis assay)
Format: biochemical
Text: The assays measure the amount by which a test compound reduces the hydrolysis of a thiopeptolide substrate catalyzed by a matrix metalloproteinase enzyme. Such assays are described in detail by Ye et al., in Biochemistry, 1992;31(45):11231–11235, which is incorporated herein by reference. One such assay is described below in Biological Method 1.
Thiopeptolide substrates show virtually no decomposition or hydrolysis at or below neutral pH in the absence of a matrix metalloproteinase enzyme. A typical thiopeptolide substrate commonly utilized for assays is Ac-Pro-Leu-Gly-thioester-Leu-Leu-Gly-OEt. A 100 μL assay mixture will contain 50 mM of N-2-hydroxyethylpiperazine-N′-2-ethanesulfonic acid buffer (“HEPES,” pH 7.0), 10 mM CaCl2, 100 μM thiopeptolide substrate, and 1 mM 5,5′-dithio-bis-(2-nitro-benzoic acid) (DTNB). The thiopeptolide substrate concentration may be varied, for example from 10 to 800 μM to obtain Km and Kcat values. The change in absorbance at 405 nm is monitored on a Thermo Max microplate reader (molecular Devices, Menlo Park, Calif.) at room temperature (22° C.). The calculation of the amount of hydrolysis of the thiopeptolide substrate is based on E412=13600 M^−1 cm^−1 for the DTNB-derived product 3-carboxy-4-nitrothiophenoxide. Assays are carried out with and without matrix metalloproteinase inhibitor compounds, and the amount of hydrolysis is compared for a determination of inhibitory activity of the test compounds.
Test compounds were evaluated at various concentrations in order to determine their respective IC50 values, the micromolar concentration of compound required to cause a 50% inhibition of catalytic activity of the respective enzyme.
Some representative compounds of Formula I have been evaluated for their ability to inhibit MMP-13. Inhibitor activity versus other MMPs with the compounds may be determined using, for example, MMP-1FL, which refers to full length interstitial collagenase; MMP-2FL, which refers to full length Gelatinase A; MMP-3CD, which refers to the catalytic domain of stromelysin; MMP-7FL, which refers to full length matrilysin; MMP-9FL, which refers to full length Gelatinase B; MMP-13CD, which refers to the catalytic domain of collagenase 3; and MMP-14CD, which refers to the catalytic domain of MMP-14. Test compounds can be evaluated at various concentrations in order to determine their respective IC50 values, the micromolar concentration of compound required to cause a 50% inhibition of the hydrolytic activity of the respective enzyme.

[1] = values in text, given as about, read-out: IC50 with MMP-13 catalytic domain
[2] = compounds of Example 33, Biological Table 1, read-out: MMP-13CD IC50

**Q.** Cc1c(SCc2cc(-c3ccc(Cl)cc3)on2)[nH]c(=O)n(Cc2ccccc2)c1=O [Example 6, 3-Benzyl-6-[5-(4-chloro-phenyl)-isoxazol-3-ylmethylsulfanyl]-5-methyl-1H-pyrimidine-2,4-dione] was tested. Which IC50 [1] did it give?
**A.** ~2.1 µM

**Q.** Which IC50 [1] does the source give for COc1ccc(-c2cc(CSc3[nH]c(=O)n(Cc4ccccc4)c(=O)c3C)on2)cc1 [Example 7, 3-Benzyl-6-[3-(4-methoxy-phenyl)-isoxazol-5-ylmethylsulfanyl]-5-methyl-1H-pyrimidine-2,4-dione] here?
**A.** ~0.44 µM

**Q.** Which IC50 [1] does the source give for Cc1c(SCc2cc(-c3ccc(Cl)cc3)no2)[nH]c(=O)n(Cc2ccccc2)c1=O [Example 20, 3-Benzyl-6-[3-(4-chloro-phenyl)-isoxazol-5-ylmethylsulfanyl]-5-methyl-1H-pyrimidine-2,4-dione] here?
**A.** ~1.2 µM

**Q.** With COc1ccc2nc(Nc3[nH]c(=O)n(Cc4ccccc4)c(=O)c3C)sc2c1 [Example 29, 3-Benzyl-6-(6-methoxy-benzothiazol-2-ylamino)-5-methyl-1H-pyrimidine-2,4-dione] as the compound, how does the IC50 [1] read?
**A.** ~0.44 µM

**Q.** How did the IC50 [2] turn out when Cc1c(SCCOc2ccc(F)cc2)n(C)c(=O)n(Cc2ccccc2)c1=O [Example 33a, 3-Benzyl-6-[2-(4-fluoro-phenoxy)-ethylsulfanyl]-1,5-dimethyl-1H-pyrimidine-2,4-dione] was run?
**A.** > 100 µM

**Q.** With Cc1c(SCc2ccc3nc(C(F)(F)F)cc(Cl)c3c2)n(C)c(=O)n(Cc2ccccc2)c1=O [Example 33b, 3-Benzyl-6-(4-chloro-2-trifluoromethyl-quinolin-6-ylmethylsulfanyl)-1,5-dimethyl-1H-pyrimidine-2,4-dione] as the compound, how does the IC50 [2] read?
**A.** > 100 µM

**Q.** How did the IC50 [2] turn out when Cc1c(SCCCc2ccccc2)n(C)c(=O)n(Cc2ccccc2)c1=O [Example 33c, 3-Benzyl-1,5-dimethyl-6-(3-phenyl-propylsulfanyl)-1H-pyrimidine-2,4-dione] was run?
**A.** > 100 µM

**Q.** With Cc1c(SCCC(=O)c2ccc(F)cc2)n(C)c(=O)n(Cc2ccccc2)c1=O [Example 33d, 3-Benzyl-6-[3-(4-fluoro-phenyl)-3-oxo-propylsulfanyl]-1,5-dimethyl-1H-pyrimidine-2,4-dione] as the compound, how does the IC50 [2] read?
**A.** > 100 µM

**Q.** With Cc1c(SCc2ccc3ccccc3c2)n(C)c(=O)n(Cc2ccccc2)c1=O [Example 33e, 3-Benzyl-1,5-dimethyl-6-(naphthalen-2-ylmethylsulfanyl)-1H-pyrimidine-2,4-dione] as the compound, how does the IC50 [2] read?
**A.** > 100 µM

**Q.** How did the IC50 [2] turn out when Cc1c(SCC(=O)c2ccc(-c3ccccc3)cc2)n(C)c(=O)n(Cc2ccccc2)c1=O [Example 33f, 3-Benzyl-6-(2-biphenyl-4-yl-2-oxo-ethylsulfanyl)-1,5-dimethyl-1H-pyrimidine-2,4-dione] was run?
**A.** > 100 µM

**Q.** With Cc1c(SCc2ccccc2-c2ccccc2)n(C)c(=O)n(Cc2ccccc2)c1=O [Example 33g, 3-Benzyl-6-(biphenyl-2-ylmethylsulfanyl)-1,5-dimethyl-1 H-pyrimidine-2,4-dione] as the compound, how does the IC50 [2] read?
**A.** > 100 µM

**Q.** How did the IC50 [2] turn out when COc1ccc(C(=O)CSc2c(C)c(=O)n(Cc3ccccc3)c(=O)n2C)cc1 [Example 33h, 3-Benzyl-6-[2-(4-methoxy-phenyl)-2-oxo-ethylsulfanyl]-1,5-dimethyl-1H-pyrimidine-2,4-dione] was run?
**A.** > 100 µM

**Q.** Which IC50 [2] does the source give for Cc1c(SCc2ccc3nc(C(F)(F)F)cc(Cl)c3c2)[nH]c(=O)n(Cc2ccccc2)c1=O [Example 33i, 3-Benzyl-6-(4-chloro-2-trifluoromethyl-quinolin-6-ylmethylsulfanyl)-5-methyl-1H-pyrimidine-2,4-dione] here?
**A.** > 100 µM

**Q.** How did the IC50 [2] turn out when Cc1onc(-c2ccccc2)c1C(=O)CSc1[nH]c(=O)n(Cc2ccccc2)c(=O)c1C [Example 33j, 3-Benzyl-5-methyl-6-[2-(5-methyl-3-phenyl-isoxazol-4-yl)-2-oxo-ethylsulfanyl]-1H-pyrimidine-2,4-dione] was run?
**A.** 23 µM

**Q.** For COc1ccc2nc(CSc3[nH]c(=O)n(Cc4ccccc4)c(=O)c3C)c(=O)oc2c1 [Example 33k, 3-Benzyl-6-(7-methoxy-2-oxo-2H-1,4-benzoxazin-3-ylmethylsulfanyl)-5-methyl-1H-pyrimidine-2,4-dione], which IC50 [2] is on record?
**A.** > 30 µM

**Q.** Which IC50 [2] does the source give for Cc1c(SCC(=O)c2cc(-c3ccccc3)no2)[nH]c(=O)n(Cc2ccccc2)c1=O [Example 33l, 3-Benzyl-5-methyl-6-[2-oxo-2-(3-phenyl-isoxazol-5-yl)-ethylsulfanyl]-1H-pyrimidine-2,4-dione] here?
**A.** > 30 µM

**Q.** With Cc1c(SCCCc2ccccc2)[nH]c(=O)n(Cc2ccccc2)c1=O [Example 33m, 3-Benzyl-5-methyl-6-(3-phenyl-propylsulfanyl)-1H-pyrimidine-2,4-dione] as the compound, how does the IC50 [2] read?
**A.** > 100 µM

**Q.** With Cc1c(SCCC(=O)c2ccc(F)cc2)[nH]c(=O)n(Cc2ccccc2)c1=O [Example 33n, 3-Benzyl-6-[3-(4-fluoro-phenyl)-3-oxo-propylsulfanyl]-5-methyl-1H-pyrimidine-2,4-dione] as the compound, how does the IC50 [2] read?
**A.** > 30 µM

**Q.** Which IC50 [2] does the source give for Cc1c(SCc2ccc3ccccc3c2)[nH]c(=O)n(Cc2ccccc2)c1=O [Example 33o, 3-Benzyl-5-methyl-6-(naphthalen-2-ylmethylsulfanyl)-1H-pyrimidine-2,4-dione] here?
**A.** > 100 µM

**Q.** For Cc1c(SCC(=O)c2ccc(-c3ccccc3)cc2)[nH]c(=O)n(Cc2ccccc2)c1=O [Example 33p, 3-Benzyl-6-(2-biphenyl-4-yl-2-oxo-ethylsulfanyl)-5-methyl-1H-pyrimidine-2,4-dione], which IC50 [2] is on record?
**A.** > 30 µM

**Q.** Cc1c(SCc2nc3ccccc3[nH]2)[nH]c(=O)n(Cc2ccccc2)c1=O [Example 33q, 6-(1H-Benzimidazol-2-ylmethylsulfanyl)-3-benzyl-5-methyl-1H-pyrimidine-2,4-dione] was tested. Which IC50 [2] did it give?
**A.** > 100 µM

**Q.** How did the IC50 [2] turn out when Cc1c(SCCCC(=O)c2ccc(Br)cc2)[nH]c(=O)n(Cc2ccccc2)c1=O [Example 33r, 3-Benzyl-6-[4-(4-bromo-phenyl)-4-oxo-butylsulfanyl]-5-methyl-1H-pyrimidine-2,4-dione] was run?
**A.** > 100 µM

**Q.** How did the IC50 [2] turn out when Cc1c(SCCCCOc2ccccc2)[nH]c(=O)n(Cc2ccccc2)c1=O [Example 33s, 3-Benzyl-5-methyl-6-(4-phenoxy-butylsulfanyl)-1H-pyrimidine-2,4-dione] was run?
**A.** > 100 µM

**Q.** For Cc1c(SCC(=O)c2cc(-c3ccc(Cl)cc3Cl)no2)[nH]c(=O)n(Cc2ccccc2)c1=O [Example 33t, 3-Benzyl-6-{2-[3-(2,4-dichloro-phenyl)-isoxazol-5-yl]-2-oxo-ethylsulfanyl}-5-methyl-1H-pyrimidine-2,4-dione], which IC50 [2] is on record?
**A.** > 30 µM

**Q.** Cc1c(SCc2ccccc2-c2ccccc2)[nH]c(=O)n(Cc2ccccc2)c1=O [Example 33u, 3-Benzyl-6-(biphenyl-2-ylmethylsulfanyl)-5-methyl-1 H-pyrimidine-2,4-dione] was tested. Which IC50 [2] did it give?
**A.** > 100 µM

**Q.** For COc1ccc(C(=O)CSc2[nH]c(=O)n(Cc3ccccc3)c(=O)c2C)cc1 [Example 33v, 3-Benzyl-6-[2-(4-methoxy-phenyl)-2-oxo-ethylsulfanyl]-5-methyl-1H-pyrimidine-2,4-dione], which IC50 [2] is on record?
**A.** 18 µM
